Like-named read-outs stand apart in the source and are kept apart here.
Columns and labels:
Human TLR7/8 = assay: Human PBMC cell-based assay, TLR7/8 stimulus (RNA-Ig), cytokine ELISA
Outline: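 The agonist was RNA-Ig, a U1 snRNA-derived 26-mer RNA (2.5 μM) complexed with RNA-cross-reacting anti-ssDNA mAb (1:25 or 1 ug/ml), added after 30 min compound pre-incubation (0.1% DMSO). Density-gradient PBMC from healthy donors, 2×10^5/well, were stimulated 20 h at 37 °C; cytokines quantified by ELISA.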

mouse TLR7 = biological target: T1, mouse TLR7 (Mus musculus, UniProt P58681); assay: Short-term in vivo (STIV) assay: oral dosing, R848 s.c., plasma IL-6; design: female BALB/c mice (Jackson Labs, Bar Harbor, Me.) were dosed by oral gavage; tissue Jackson Labs; host or cells: living female BALB/c mice; plasma IL-6 after s.c. R848
T1 sequence (P58681 27-1050): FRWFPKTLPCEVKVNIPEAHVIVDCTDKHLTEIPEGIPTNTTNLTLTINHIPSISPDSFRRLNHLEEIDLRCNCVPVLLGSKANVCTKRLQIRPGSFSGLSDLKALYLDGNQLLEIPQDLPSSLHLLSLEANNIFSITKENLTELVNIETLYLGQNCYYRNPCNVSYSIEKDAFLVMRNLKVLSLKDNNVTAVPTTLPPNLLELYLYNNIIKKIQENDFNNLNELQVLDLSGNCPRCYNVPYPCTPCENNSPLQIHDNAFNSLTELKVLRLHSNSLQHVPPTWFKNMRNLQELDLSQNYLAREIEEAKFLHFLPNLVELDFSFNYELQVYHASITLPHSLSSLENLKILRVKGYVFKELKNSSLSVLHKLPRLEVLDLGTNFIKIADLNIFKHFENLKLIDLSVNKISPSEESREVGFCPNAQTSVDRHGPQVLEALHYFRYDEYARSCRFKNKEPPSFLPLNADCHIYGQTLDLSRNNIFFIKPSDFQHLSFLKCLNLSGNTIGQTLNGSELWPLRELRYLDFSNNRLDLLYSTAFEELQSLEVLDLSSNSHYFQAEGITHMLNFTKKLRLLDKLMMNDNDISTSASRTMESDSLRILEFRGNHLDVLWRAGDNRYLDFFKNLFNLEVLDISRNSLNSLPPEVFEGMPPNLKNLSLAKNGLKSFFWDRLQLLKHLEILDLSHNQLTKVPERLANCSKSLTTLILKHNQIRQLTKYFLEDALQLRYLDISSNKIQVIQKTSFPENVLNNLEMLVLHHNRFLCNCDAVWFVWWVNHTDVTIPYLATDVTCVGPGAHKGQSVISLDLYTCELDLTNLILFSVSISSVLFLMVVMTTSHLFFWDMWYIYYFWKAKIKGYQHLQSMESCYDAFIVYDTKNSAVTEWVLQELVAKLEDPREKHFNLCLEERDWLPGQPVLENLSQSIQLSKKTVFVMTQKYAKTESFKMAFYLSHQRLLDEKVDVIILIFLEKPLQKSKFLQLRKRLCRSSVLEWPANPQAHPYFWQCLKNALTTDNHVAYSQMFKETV
Outline: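 Female BALB/c mice (6–8 weeks) dosed orally with compound in 0.5% aqueous methyl-cellulose at 33, 100 or 300 mg/kg; at various times afterwards given 15 ug R848 s.c. to stimulate TLR7. Plasma IL-6 measured by ELISA to gauge potency and duration of action.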

[1] = primary human PBMC assay, TLR7/8 potency; ligand not given; read-out: Human PBMCs IC50

SMILES	IC50 (Human TLR7/8; [1])	% Suppression vs. Vehicle (mouse TLR7; 6 h, 100 mg/kg)	% Suppression vs. Vehicle (mouse TLR7; 13 h, 100 mg/kg)	% Suppression vs. Vehicle (mouse TLR7; 6 h, 33 mg/kg)	% Suppression vs. Vehicle (mouse TLR7; 13 h, 33 mg/kg)	% Suppression vs. Vehicle (mouse TLR7; 13 h, 300 mg/kg)	% Suppression vs. Vehicle (mouse TLR7; 24 h, 33 mg/kg)	% Suppression vs. Vehicle (mouse TLR7; 24 h, 100 mg/kg)	% Suppression vs. Vehicle (mouse TLR7; 24 h, 300 mg/kg)	% Suppression vs. Vehicle (mouse TLR7; 3 h, 33 mg/kg)	% Suppression vs. Vehicle (mouse TLR7; 3 h, 100 mg/kg)	% Suppression vs. Vehicle (mouse TLR7; 19 h, 33 mg/kg)	% Suppression vs. Vehicle (mouse TLR7; 19 h, 100 mg/kg)	% Suppression vs. Vehicle (mouse TLR7; 19 h, 11 mg/kg)	IC50 (Human TLR7/8; read-out: Human PBMCs IC50; primary human PBMC assay, TLR7/8 potency; ligand not given)
C[C@@H]1CN(c2ccc(C#N)c3ncccc23)C[C@H](C(=O)NC2CCN(CC(N)=O)CC2)O1 [ER-899481]	8 nM	54%	5%	–	–	–	–	–	–	–	–	–	–	–	–
CC1CN(c2ccc(C#N)c3ncccc23)CC(C(=O)Nc2cnn(C3CCNCC3)c2)O1 (centres unmarked) [ER-899285]	7 nM	75%	0%	–	–	–	–	–	–	–	–	–	–	–	–
C[C@@H]1CN(c2ccc(C#N)c3ncccc23)C[C@H](CN2CCN[C@@H](C)C2)O1 [ER-887270]	1 nM	–	81%	98%	37%	99%	25%	26%	100%	–	–	–	–	–	–
CC1CN(c2ccc(C#N)c3ncccc23)CC(C(=O)NC2CCCNC2)O1 (centres unmarked) [ER-897968]	1 nM	–	35%	81%	3%	85%	0%	8%	80%	–	–	–	–	–	–
CC1CN(c2ccc(C#N)c3ncccc23)CC(C(=O)NCC(C)(C)N(C)C)O1 (centres unmarked) [ER-898566]	11 nM	99%	86%	100%	73%	98%	0%	30%	100%	–	–	–	–	–	–
CC1CN(c2ccc(C#N)c3ncccc23)CC(C(=O)N2CC3(CCNC3)C2)O1 (centres unmarked) [ER-899017]	4 nM	–	0%	34%	0%	10%	–	0%	0%	–	–	–	–	–	–
C[C@@H]1CN(c2ccc(C#N)c3ncccc23)C[C@H](C(=O)N[C@@H]2CNC[C@@H]2F)O1.Cl [ER-899745]	4 nM	100%	5%	–	–	–	–	–	–	–	–	–	–	–	–
C[C@@H]1CN(c2ccc(C#N)c3ncccc23)C[C@H](C(=O)N(C)[C@H]2CCCNC2)O1 [ER-899619]	33 nM	79%	35%	–	–	–	–	–	–	–	–	–	–	–	–
CC1CN(c2ccc(C#N)c3ncccc23)CC(CN2CCC(NC(=O)c3ccccc3)CC2)O1 (centres unmarked) [ER-888321]	22 nM	100%	100%	86%	87%	–	–	–	–	98%	100%	59%	59%	–	–
C[C@@H]1CN(c2ccc(C#N)c3ncccc23)C[C@H](CN2CCN(C)[C@H](C)C2)O1 [ER-890346]	6 nM	–	–	–	–	–	–	–	–	99%	–	20%	–	0%	–
CC1CN(c2ccc(C#N)c3ncccc23)CC(C(=O)NC2CCNCC2)O1 (centres unmarked) [ER-898946]	2 nM	–	16%	61%	2%	55%	28%	0%	34%	–	–	–	–	–	–
CC1CN(c2ccc(C#N)c3ncccc23)CC(C(=O)NC2CNCC2F)O1 (centres unmarked) [ER-899476]	–	99%	65%	–	–	–	–	–	–	–	–	–	–	–	3 nM
